From PubChem BioAssay AID1963984 (Molecular Pharmacology Branch, DTP, NCI, 2024)

System: 233499-124-R-J3-PDC spheroids with HUVEC/MSC, viability
Experiment: Anticancer human tumor 233499-124-R-J3-PDC patient-derived colon adenocarcinoma cell line growth inhibition [PI3K]
Settings: for IC50: curve of first compound; for viability, T/C: stronger effect = lower value; active means viability on the fitted dose curve at most 10% of control; inactive means the rest
Procedure, shortened: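 Spheroid viability read-out. Co-cultures contained the tumor line plus HUVEC and human MSCs. Each agent was paired with a PI3K inhibitor (inavolisib, alpelisib, duvelisib, copanlisib) across half-log dilutions starting at clinical Cmax, or at 10 microM when Cmax was unknown.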

[1] = second compound 0.0316 µM, first compound 0.0316 µM
[2] = second compound 0.0316 µM, first compound 0.1 µM
[3] = second compound 0.0316 µM, first compound 0.316 µM
[4] = second compound 0.0316 µM, first compound 1 µM
[5] = second compound 0.0316 µM, first compound 3.16 µM
[6] = second compound 0.0316 µM, first compound 10 µM
[7] = second compound 0.1 µM, first compound 0.0316 µM
[8] = second compound 0.1 µM, first compound 0.1 µM
[9] = second compound 0.1 µM, first compound 0.316 µM
[10] = second compound 0.1 µM, first compound 1 µM
[11] = second compound 0.1 µM, first compound 3.16 µM
[12] = second compound 0.1 µM, first compound 10 µM
[13] = second compound 0.316 µM, first compound 0.0316 µM
[14] = second compound 0.316 µM, first compound 0.1 µM
[15] = second compound 0.316 µM, first compound 0.316 µM
[16] = second compound 0.316 µM, first compound 1 µM
[17] = second compound 0.316 µM, first compound 3.16 µM
[18] = second compound 0.316 µM, first compound 10 µM
[19] = second compound 1 µM, first compound 0.0316 µM
[20] = second compound 1 µM, first compound 0.1 µM
[21] = second compound 1 µM, first compound 0.316 µM
[22] = second compound 1 µM, first compound 1 µM
[23] = second compound 1 µM, first compound 3.16 µM
[24] = second compound 1 µM, first compound 10 µM
[25] = second compound 3.16 µM, first compound 0.0316 µM
[26] = second compound 3.16 µM, first compound 0.1 µM
[27] = second compound 3.16 µM, first compound 0.316 µM
[28] = second compound 3.16 µM, first compound 1 µM
[29] = second compound 3.16 µM, first compound 3.16 µM
[30] = second compound 3.16 µM, first compound 10 µM
[31] = second compound 10 µM, first compound 0.0316 µM
[32] = second compound 10 µM, first compound 0.1 µM
[33] = second compound 10 µM, first compound 0.316 µM
[34] = second compound 10 µM, first compound 1 µM
[35] = second compound 10 µM, first compound 3.16 µM
[36] = second compound 10 µM, first compound 10 µM
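Further: spheroids exposed to agents for seven days before readout.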
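Wherever viability, T/C is given: percent viability relative to DMSO vehicle control taken as 100%.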

CC(Cn1ccc(-c2ccc(C#N)c(Cl)c2)n1)NC(=O)c1cc(C(C)O)[nH]n1 (centres undefined) + CC(Nc1ncnc2nc[nH]c12)c1cc2cccc(Cl)c2c(=O)n1-c1ccccc1
inactive: viability, T/C [1] 100% | viability, T/C [2] 84.7% | viability, T/C [3] 93.2% | viability, T/C [4] 91.9% | viability, T/C [5] 109% | viability, T/C [6] 75% | viability, T/C [7] 98.2% | viability, T/C [8] 91.6% | viability, T/C [9] 81.5% | viability, T/C [10] 94.6% | viability, T/C [11] 68.8% | viability, T/C [12] 92.2% | viability, T/C [13] 87.3% | viability, T/C [14] 101% | viability, T/C [15] 73.3% | viability, T/C [16] 99.6% | viability, T/C [17] 100% | viability, T/C [18] 101% | viability, T/C [19] 96.2% | viability, T/C [20] 95.8% | viability, T/C [21] 81.4% | viability, T/C [22] 110% | viability, T/C [23] 92.9% | viability, T/C [24] 90.6% | viability, T/C [25] 91.6% | viability, T/C [26] 96.5% | viability, T/C [27] 78.1% | viability, T/C [28] 88.7% | viability, T/C [29] 78.3% | viability, T/C [30] 86.5% | viability, T/C [31] 86.1% | viability, T/C [32] 96.3% | viability, T/C [33] 83.2% | viability, T/C [34] 102% | viability, T/C [35] 75.5% | viability, T/C [36] 93.3%
> 10000 nM: IC50 (second compound 0.0316 µM) | IC50 (second compound 0.1 µM) | IC50 (second compound 0.316 µM) | IC50 (second compound 1 µM) | IC50 (second compound 3.16 µM) | IC50 (second compound 10 µM)

CC1(C)CCC(Nc2ncc(C(F)(F)F)c(-c3c[nH]c4c(P(C)(C)=O)c(C#N)ccc34)n2)CN1 (centres undefined) + CC(Nc1ncnc2nc[nH]c12)c1cc2cccc(Cl)c2c(=O)n1-c1ccccc1
202 nM: IC50 (second compound 0.0316 µM)
273 nM: IC50 (second compound 3.16 µM)
< 31.6 nM: IC50 (second compound 10 µM)
active: viability, T/C [30] 4.38% | viability, T/C [36] 6.16%
inactive: viability, T/C [1] 88.8% | viability, T/C [2] 52.3% | viability, T/C [3] 40% | viability, T/C [4] 50.8% | viability, T/C [5] 25.2% | viability, T/C [6] 20.1% | viability, T/C [7] 93% | viability, T/C [8] 50.4% | viability, T/C [9] 49% | viability, T/C [10] 30.9% | viability, T/C [11] 29.8% | viability, T/C [12] 6.77% | viability, T/C [13] 66.7% | viability, T/C [14] 46% | viability, T/C [15] 30.7% | viability, T/C [16] 32.2% | viability, T/C [17] 34% | viability, T/C [18] 10.2% | viability, T/C [19] 81.8% | viability, T/C [20] 50.5% | viability, T/C [21] 51% | viability, T/C [22] 28.2% | viability, T/C [23] 22.7% | viability, T/C [24] 22.6% | viability, T/C [25] 75.9% | viability, T/C [26] 67.2% | viability, T/C [27] 46.8% | viability, T/C [28] 27.5% | viability, T/C [29] 23.2% | viability, T/C [31] 52.3% | viability, T/C [32] 36.4% | viability, T/C [33] 49.6% | viability, T/C [34] 20.7% | viability, T/C [35] 38.8%
210 nM: IC50 (second compound 0.1 µM)
90.3 nM: IC50 (second compound 0.316 µM)
170 nM: IC50 (second compound 1 µM)
